Structures can show the parent of a compound that is named as a salt. Where two headings read alike, the source gives them in different places.
Legend:
[1] = test system: L. infantum (MHOM/MA/67/ITMAP-263) intracellular amastigotes; assay: Activity against L. infantum MHOM/MA/67/ITMAP-263 intramacrophage amastigotes (luciferase, THP-1); assay type: cell-based, Leishmania infantum; conditions: for inhibition at 10 µM / IC50 / inhibition at 1 µM: Leishmania infantum; for inhibition at 10 µM / inhibition at 1 µM: THP-1; for inhibition at 10 µM: read-out: Mean % Inhibition ± SD at 10μM; for IC50: THP-1, 72 h, read-out: L. infantum (MHOM/MA/67/ITMAP-263) Intracellular Amastigotes IC50 ± SD; for inhibition at 1 µM: read-out: Mean % Inhibition ± SD at (1 μM) (converted)
Procedure: A cloned line of L. infantum (MOM/ MA671TMAP263) promastigotes were maintained in RPMI 1640 medium supplemented with 10% heat-inactivated foetal bovine serum (FBS), 2 mM L-glutamine, 20 mM HEPES and 1% Penn/Strep. Maintenance of promastigotes was done in T-25 flasks at 26 °C by subpassage at […] every 5−6 days. L. infantum axenic amastigotes expressing episomal luciferase were maintained in MAA/20 (axenic amastigote medium) at 37 °C under a 5% CO2 environment with subpassages every 5 days. LUC-positive parasites were selected by addition of geneticin sulphate (G418) to the culture at 60 μg/mL.
The efficacy of compounds against L. infantum intracellular amastigotes was determined according to the literature with slight modifications. Briefly, 1 × 10^6 THP-1 cell/mL were seeded in a 96 well flat bottom plate (100 µL/well) and differentiated into macrophages by addition of 20 ng/mL of phorbol-myristate 13-acetate (PMA, Sigma, Saint Louis, MI, USA) for 18 h, followed by replacement with fresh medium for 24 h. Then these cells were infected with luciferase-expressing L. infantum axenic amastigotes in a macrophage:amastigotes ratio of 1:10 for 4 h at 37 °C, 5% CO2. Non-internalized parasites were washed and compounds were added at different concentrations in a final volume of 100 µL. After 72 h of incubation, the media was substituted by 100 µL of PBS. Then of 25 µL of Glo-lysis buffer from the Steady-Glo Luciferase Assay System (Promega, Madison, WI, USA) was added mixed and incubated for 10 min with agitation at 100 rpm. Finally, 30 µL of the Steady-Glo reagent (Promega, Madison, WI, USA) was then added to the plate and was incubated for 15 min with agitation at 100 rpm and then the content of each well was transferred to white-bottom 96-well plates. Luminescence intensity was read using a Synergy 2 Multi-Mode Reader (Biotek, Winooski, VT, USA). The antileishmanial effect was evaluated by the determination of the IC50 value (concentration required to inhibit growth in 50%) and calculated by the non-linear regression analysis using GraphPad Prism version 8.1.1 for Windows (GraphPad Software, San Diego CA, USA).

CYP1A2 = biological target: T1, CYP1A2 (Homo sapiens, UniProt P05177); assay: Cytochrome P450 inhibition assay (P450-Glo) CYP1A2; assay type: in vitro ADME; conditions: compounds 10 μM; miltefosine 10 μM or 1 μM
T1 construct: purchased Corning Inc; host or cells: baculovirus-infected insect cells
T1 sequence (P05177 2-516 limits assumed): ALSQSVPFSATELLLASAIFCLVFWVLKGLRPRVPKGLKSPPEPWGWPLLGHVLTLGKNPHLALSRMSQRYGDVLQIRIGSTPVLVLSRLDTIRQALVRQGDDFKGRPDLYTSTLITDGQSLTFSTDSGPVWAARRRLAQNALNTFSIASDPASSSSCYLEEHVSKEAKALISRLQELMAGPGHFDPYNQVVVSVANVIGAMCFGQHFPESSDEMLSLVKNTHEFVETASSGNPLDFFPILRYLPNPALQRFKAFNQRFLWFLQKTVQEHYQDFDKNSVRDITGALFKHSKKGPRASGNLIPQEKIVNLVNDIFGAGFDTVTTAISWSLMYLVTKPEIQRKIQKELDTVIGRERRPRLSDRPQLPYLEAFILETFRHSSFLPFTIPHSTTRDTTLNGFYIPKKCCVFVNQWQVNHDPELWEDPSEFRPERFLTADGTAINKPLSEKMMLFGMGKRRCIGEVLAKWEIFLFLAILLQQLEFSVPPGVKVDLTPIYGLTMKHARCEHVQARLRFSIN
Excerpt: Cytochrome (CYP) P450 inhibition assay: These assays made use of microsomal preparations of CYP450 (1A2, 2C9, 2C19, 2D6 and 3A4) from baculovirus-infected insect cells (Corning Inc., Corning, NY, USA) and cytochrome c reductase (and cytochrome b5 for CYP450 3A4). For detection of CYP450 activity, the luminescence-based P450-Glo (Promega Corp., Madison, WI, USA) assay system was used that contained a luminogenic CYP450 substrate, lyophilized luciferin detection reagent and reconstitution buffer. The substrates were luciferin derivatives of CYP450-specific substrates that produce (4S)-4,5-dihydro-2-(6-hydroxybenzothiazolyl)-4-thiazolecarboxylic acid (D-luciferin) after cleavage by CYP450 (CYP450 3A4, luciferin-IPA; CYP450 2C19, luciferin-H EGE; CYP450 2C9, luciferin-H; CYP450 2D6, luciferin-ME EGE; CYP450 1A2, luciferin-1A2). CYP450 reactions were initiated by addition of the NADPH regeneration system to the enzyme–substrate mixture with the luciferin detection reagent stopping the reaction and the D-luciferin being converted to oxyluciferin under the production of light being proportional to the CYP450 activity. The CYP450 assays were performed using the Tecan Fluent liquid-handling automation platform (Tecan Group Ltd., Mannedorf, Switzerland) in the 384-well assay format. Compounds were added into an empty 384-well plate (100 nL/well in 1% v/v DMSO) using the Echo 550 Liquid Handler followed by the addition of 5 μL/well of the CYP450/substrate mixture and incubation for 30 min at 37 °C, after which the reaction was initiated by the addition of the 5 μL/well NADPH regeneration system. After a further 30-min incubation at 37 °C, the CYP450 reaction was stopped and the luciferase reaction was simultaneously initiated by addition of 10 μL/well of luciferin detection reagent, followed by an additional 30-min incubation at 37 °C. The luminescence signal was detected using an Infinite M1000 PRO plate reader (Tecan Group Ltd., Mannedorf, Switzerland). The NCs yielded 0% inhibition (1% v/v DMSO) and standard CYP450 specific inhibitors were used as positive controls, yielding 100% inhibition (CYP450 1A2, alpha-naphthoflavone; CYP450 2C9, sulfaphenazole; CYP450 2C19, troglitazone; CYP450 2D6, quinidine; CYP450 3A4, ketoconazole).
Data analysis: The screening data were obtained in triplicate and analysed using ActivityBase (IDBS, Guildford, UK), and outlier elimination in the control wells was performed using the 3-sigma method. Unless stated, dose–response experiments were performed in the 11-point format with the IC50 value, Hill slope, minimum signal and maximum signal for each dose–response curve obtained using a four-parameter logistic fit in the XE module of ActivityBase (IDBS).

[2] = CC50 THP-1 / IC50 L. infantum MHOM/MA/67/ITMAP-263

| Structure (SMILES) | inhibition at 10 µM ([1]; 10 μM, 72 h, N.A. = inactive) [%] | % inhibition ± SD at 10 μΜ CYP1A2 (CYP1A2) | Selectivity Index CC50/IC50 [1] | IC50 [1] [µM] | inhibition at 1 µM ([1]; 72 h) [%] | Selectivity Index CC50/IC50 [1, 2] | Mean % Inhibition ± SD at 10μM ([1]; 10 μM, 72 h, N.A. = inactive) |
| --- | --- | --- | --- | --- | --- | --- | --- |
| C[N+](C)(C)CCOP(=O)([O-])OCCCCCCCCCCCn1cc(CCCCCCCCC(=O)O)nn1 [Compound 34, 11-(4-(8-carboxyoctyl)-1H-1,2,3-triazol-1-yl)undecyl (2-(trimethylammonio)ethyl) phosphate inner salt] | 10 ± 9 | –3.73% | – | – | – | – | – |
| CCCCCCCCCCCCCCCCOP(=O)([O-])OCC[N+](C)(C)C [Miltefosine, hexadecylphosphocholine, reference compound] | – | –20.62% | 4.9 | 3.2 ± 1.4 | – | – | – |
| C[N+](C)(C)CCCOP(=O)([O-])OCCCCCCCCCCCn1cc(CC2CCCCC2)nn1 [Compound 33, 11-(4-(cyclohexylmethyl)-1H-1,2,3-triazol-1-yl)undecyl (3-(trimethylammonio)propyl) phosphate inner salt] | 12 ± 5 | 15.23% | – | – | – | – | – |
| C[N+](C)(C)CCOP(=O)([O-])OCCCCCCCCCCCn1cc(CC2CCCCC2)nn1 [Compound 29, 11-(4-(cyclohexylmethyl)-1H-1,2,3-triazol-1-yl)undecyl (2-(trimethylammonio)ethyl) phosphate inner salt] | 43 ± 1 | –28.56% | – | – | – | – | – |
| C[N+](C)(C)CCOP(=O)([O-])OCCCCCCCCCCCn1cc(CCCCCCCCNC(=O)OCc2ccccc2)nn1 [Compound 32, 11-(4-(8-(((benzyloxy)carbonyl)amino)octyl)-1H-1,2,3-triazol-1-yl)undecyl (2-(trimethylammonio)ethyl) phosphate inner salt] | 5 ± 18 | 12.02% | – | – | – | – | – |
| CCCCCCCCCCCc1nnc(CCCCCCCCCCOP(=O)([O-])OCC[N+](C)(C)C)o1 [Compound 66, 2-(trimethylammonio)ethyl (10-(5-undecyl-1,3,4-oxadiazol-2-yl)decyl) phosphate inner salt] | 94.2 ± 3 | 12.37% | – | – | 3.3 | – | – |
| C[N+](C)(C)CCOP(=O)([O-])OCCCCCn1cc(CCCCCCCCNC(=O)OCc2ccccc2)nn1 [Compound 31, 5-(4-(8-(((benzyloxy)carbonyl)amino)octyl)-1H-1,2,3-triazol-1-yl)pentyl (2-(trimethylammonio)ethyl) phosphate inner salt] | – | 13.80% | – | – | – | – | – |
| CCCCCCCCc1noc(CCCCCCCCCCOP(=O)([O-])OCC[N+](C)(C)C)n1 [Compound 54, 10-(3-octyl-1,2,4-oxadiazol-5-yl)decyl (2-(trimethylammonio)ethyl) phosphate inner salt] | 100.4 ± 1 | 9.37% | – | 0.8 ± 0.18 | 67.1 | 13.6 | – |
| C[N+](C)(C)CCOP(=O)([O-])OCCCCCn1cc(CCCCCCCCN)nn1 [Compound 35, 5-(4-(8-aminooctyl)-1H-1,2,3-triazol-1-yl)pentyl (2-(trimethylammonio)ethyl) phosphate inner salt] | – | 9.42% | – | – | – | – | – |
| CCCCCCCc1nnc(CCCCCCCCCCOP(=O)([O-])OCC[N+](C)(C)C)o1 [Compound 65, 10-(5-heptyl-1,3,4-oxadiazol-2-yl)decyl (2-(trimethylammonio)ethyl) phosphate inner salt] | 92.9 ± 5 | 18.05% | – | – | 4.8 | – | – |
| CCCCCCCCCCc1cc(CCCCCCCCCCOP(=O)([O-])OCC[N+](C)(C)C)no1 [Compound 41, 10-(5-decylisoxazol-3-yl)decyl (2-(trimethylammonio)ethyl) phosphate inner salt] | 93.7 ± 10 | 10.86% | – | – | – | – | – |
| CCCCCCCCc1noc(CCCCCOP(=O)([O-])OCC[N+](C)(C)C)n1 [Compound 53, 5-(3-octyl-1,2,4-oxadiazol-5-yl)pentyl (2-(trimethylammonio)ethyl) phosphate inner salt] | 98.4 ± 1 | 20.03% | – | – | 34.6 | – | – |
| CCCCCc1cn(CCCCCCCCCCCOP(=O)([O-])OCC[N+](C)(C)C)nn1 [Compound 25, 11-(4-pentyl-1H-1,2,3-triazol-1-yl)undecyl (2-(trimethylammonio)ethyl) phosphate inner salt] | 32 ± 19 | –20.41% | – | 34.3 ± 19.4 | – | >3 | – |
| C[N+](C)(C)CCOP(=O)([O-])OCCCCCCCCCCCn1cc(CC2CCCC2)nn1 [Compound 28, 11-(4-(cyclopentylmethyl)-1H-1,2,3-triazol-1-yl)undecyl (2-(trimethylammo nio)ethyl) phosphate inner salt] | – | –13.84% | – | – | – | – | inactive |
